Experimental data taken from PMC8199578, “Anti-Inflammatory, Antiallergic, and COVID-19 Main Protease (M^pro) Inhibitory Activities of Butenolides from a Marine-Derived Fungus Aspergillus terreus” (Molecules, 2021).
Where two headings read alike, the source gives them in different places.

How the values were obtained:
human neutrophils [1] = assay: Elastase release in fMLF/CB-induced human neutrophils; assay type: cell-based; details: Neutrophil, read-out: Elastase Release in Human Neutrophils IC50
Description: (§1) The human neutrophils were obtained from venous blood of healthy adult volunteers (20–30 years old) following the reported procedure. Elastase release by the activated neutrophils was determined using elastase substrate (N-methoxysuccinyl-Ala-Ala-Pro-Val-p-nitroanilide) according to the previous methodology. The tested samples’ concentration was 1 to 10 μM and the total incubation time in fMLF/CB-induced cells was 15 min. Genistein was used as the positive control. Cytotoxicity test was performed based on the release of LDH stored in the cytoplasm out of the cells. Briefly, preheated (37 °C, 5 min, 1 mM CaCl2) human neutrophils (6 × 10^5 cells·mL^−1) were incubated with test compounds for 15 min. Total LDH release control was represented as completely lysed cells by 0.1% of Triton X-100 solution incubated with cells for 30 min. The cells were centrifuged at 4 °C for 200× g for 8 min, and LDH reagent was added to supernatant and reacted at room temperature for 30 min in the dark. The absorbance was then measured at 492 nm, and the LDH release was calculated and compared to the total LDH release set as 100%.

RBL-2H3 cells [2] = assay: A23187-induced degranulation (β-hexosaminidase release) assay; assay type: cell-based; details: Rattus norvegicus; for IC50: RBL-2H3, read-out: Inhibition of A23187-Induced Degranulation IC50
Description: (§2) The mucosal mast-cell-derived rat basophilic leukemia cells (RBL-2H3) were purchased from Bioresource Collection and Research Center (Hsin-Chu, Taiwan). The cells were cultured in DMEM containing 10% FBS, 100 U/mL penicillin, and 100 μg/mL streptomycin in 10 cm cell culture dishes at 37 °C in a humidified chamber with 5% CO2 in air. The level of degranulation in RBL-2H3 cells was evaluated using β-hexosaminidase release assay induced by A23187 or antigen as reported before with some modifications. Briefly, the cells were seeded in a 96-well plate (2 × 10^4 cells/well, for the A23187-induced assay) or a 48-well plate (3 × 10^4 cells/well, for the antigen-induced assay) overnight. The cells for the antigen-induced assay were sensitized with anti-DNP IgE (0.5 μg/mL; Sigma) during seeding overnight. RBL-2H3 cells were then treated with the samples (0.5, 5, and 50 μM) for 30 min in Tyrode’s buffer with a maximal DMSO dose of 0.5%. For the A23187-induced assay, the cells were activated by addition of A23187 (final concentration 0.5 μM), while cells for the antigen-induced assay were activated by the addition of DNP-BSA (final concentration 100 ng/mL) for 30 min. Azelastine (10 μM) served as the positive control. The amount of β-hexosaminidase was detected using the method utilizing p-NAG as the substrate according to the procedure described before.

RBL-2H3 cells [3] = assay: Antigen (anti-DNP IgE plus DNP-BSA)-induced degranulation (β-hexosaminidase release) assay; assay type: cell-based; details: Rattus norvegicus; for IC50: RBL-2H3, read-out: Inhibition of Antigen-Induced Degranulation IC50
Description: as §2

[4] = MTT cell viability assay in mast cells; assay type: cell-based; details: rat
Description: as §2
The viability of the RBL-2H3 cells in the presence of the samples (10 and 100 μM) was determined using the methylthiazole tetrazolium (MTT) assay according to a previous method.

[5] = design: method as in PMID 29763312; details: via reducing the levels of histamine and mouse mast cell proteinases; cited from earlier work
[6] = Lactate dehydrogenase (LDH) viability assay in human neutrophils; assay type: cell-based; details: human, human neutrophils; 10 μM; based on lactate dehydrogenase release; mean ± S.E.M. (n = 3); read-out: Cell viability, Human Neutrophils
Description: as §1

human neutrophils [7] = assay: as above; assay type: cell-based; details: cell viability assay based on lactate dehydrogenase release
Description: as §1

[8] = target: T1, human neutrophil elastase (Homo sapiens, UniProt P08246); assay: Elastase enzymatic activity (cell-free); assay type: biochemical; details: mean ± S.E.M. (n = 3)
T1 construct: followed by fMLF (0.1 μM) for 20 min to release the elastase from the cells; endogenous in cells; host or cells: human neutrophils; degranulation supernatant after CB/fMLF stimulation
T1 sequence (P08246 30-247 limits assumed): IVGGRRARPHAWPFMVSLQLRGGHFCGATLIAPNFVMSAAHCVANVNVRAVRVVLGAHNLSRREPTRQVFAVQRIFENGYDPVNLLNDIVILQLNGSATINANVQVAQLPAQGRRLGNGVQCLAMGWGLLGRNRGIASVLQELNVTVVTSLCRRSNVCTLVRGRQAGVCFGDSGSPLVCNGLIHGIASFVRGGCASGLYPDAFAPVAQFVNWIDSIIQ
Description: The compounds were further tested for direct inhibition of elastase enzymatic activity. The neutrophil suspension (6 × 10^5 cells mL^−1) was preheated for 5 min in the presence of CaCl2 (1 mM) at 37 °C. Priming agent CB (1.5 μg mL^−1) was added for 2 min, followed by fMLF (0.1 μM) for 20 min to release the elastase from the cells. After centrifugation at 1000 g for 5 min at 4 °C, the supernatant containing elastase was preheated at 37 °C for 5 min, and the test compounds were added. Then, 0.1 mM of substrate methoxysuccinyl-Ala-Ala-Pro-Val-p-nitroanilide was added for 10 min. The effect of the compounds on elastase enzymatic activity was quantified by measuring the absorbance at 405 nm.

[9] = 100 μM, MTT viability assay, compared with untreated control (DMSO), n = 3, read-out: Cell Viability, RBL-2H3
[10] = RBL-2H3, read-out: Inhibition of A23187-induced degranulation
[11] = RBL-2H3, read-out: Inhibition of antigen-induced degranulation

| Compound | IC50 (RBL-2H3 cells [2]) | IC50 (RBL-2H3 cells [3]) | IC50 (human neutrophils [1]; Homo sapiens) | viability at 100 µM [4, 9] | viability at 15 min, 10 µM [6] | Toxicity to human neutrophils (in words) (human neutrophils [7]) | IC50 [8] | further results |
| --- | --- | --- | --- | --- | --- | --- | --- | --- |
| O=c1c(-c2ccc(O)cc2)coc2cc(O)cc(O)c12 [Genistein, reference compound] |  |  |  |  |  |  |  | IC50 (human neutrophils [1]; fMLF/cytochalasin B (CB)-induced human neutrophils, mean ± S.E.M. (n = 3)): 32.7 µM |
| C=C1C[C@]2(O)[C@@]3(C)CCC(=O)C(C)(C)C3=C(O)C(=O)[C@@]2(C)[C@@H]2C(=O)O[C@@](C)(C(=O)OC)C(=O)[C@@]12C [Terretonin (3), terretonin] | > 100 µM | > 100 µM | > 10 µM | > 90% |  |  |  |  |
| CN1CCCC(n2nc(Cc3ccc(Cl)cc3)c3ccccc3c2=O)CC1 (stereo not drawn) [Azelastine, reference compound] |  |  |  |  |  |  |  | inhibition at 10 µM (RBL-2H3 cells [2]; RBL-2H3, 10 μM, mean ± S.E.M. (n = 3), read-out: Inhibition of A23187-induced degranulation): 34.5%; inhibition at 10 µM (RBL-2H3 cells [3]; RBL-2H3, 10 μM, mean ± S.E.M. (n = 3), read-out: Inhibition of antigen-induced degranulation): 35.5% |
| CC(C)=CCc1cc(C=O)ccc1O [4-hydroxy-3-(3-methylbut-2-enyl)benzaldehyde] | > 100 µM | > 100 µM | > 10 µM |  |  |  |  | viability at 100 µM [4]: > 90% |
| COC(=O)[C@]1(Cc2ccc(O)c(CC=C(C)C)c2)OC(=O)C(O)=C1c1ccc(O)cc1 [Butyrolactone I (1), butyrolactone I] | 39.7 µM | 41.6 µM | 2.3 ± 0.27 µM | > 90% | 94.1 ± 2.31% | non-toxic | 16.7 ± 2.64 µM | inhibition at 10 µM (RBL-2H3 cells [2]; [10]): 26%; inhibition at 100 µM (RBL-2H3 cells [2]; [10]): 98.7%; inhibition at 10 µM (RBL-2H3 cells [3]; [11]): 30%; inhibition at 100 µM (RBL-2H3 cells [3]; [11]): 87%; Effect on ovalbumin-induced allergy symptoms [5]: alleviating ovalbumin-induced allergy symptoms |
| COC(=O)[C@]1(Cc2ccc(O)c(CC3OC3(C)C)c2)OC(=O)C(O)=C1c1ccc(O)cc1 (stereo partly drawn) [Butyrolactone III (2), butyrolactone III] | > 100 µM | > 100 µM | > 10 µM | > 90% | 98.2 ± 1.77% | non-toxic | > 30 µM |  |
